{
  "source": "patent US11083724B2",
  "about": "“Rimegepant for CGRP related disorders” (Biohaven Pharmaceutical Holding Company Ltd., priority 2018, dated 2021)",
  "tested_on": "patients with migraine",
  "assay": "Study 201 (BHV3000-201, NCT03266588): open label long-term safety study, rimegepant 75 mg oral tablet",
  "type": "in vivo, human",
  "experimental": "Clinical Trial-BHV3000-201: Open Label Safety Study in Acute Treatment of Migraine (ClinicalTrials.gov A phase 2⁄3 clinical study is conducted with about 2000 participants, as follows. The purpose of this study is to evaluate safety and tolerability of BHV3000 (rimegepant). Study Design • Study Type: Interventional (Clinical Trial) • Estimated Enrollment: 2000 participants • Intervention Model: Single Group Assignment • Masking: None (Open Label) • Primary Purpose: Treatment • Official Title: A Multicenter, Open Label Long-Term Safety Study of BHV3000 in the Acute Treatment of Migraine • Actual Study Start Date: Aug. 30, 2017 • Estimated Primary Completion Date: July 2019 • Estimated Study Completion Date: July 2019 Arms and Interventions Outcome Measures Primary Outcome Measures: 1. To assess the safety and tolerability of rimegepant (BHV-3000) by measuring the frequency and severity of adverse events and discontinuations due to adverse events [Time Frame: 52 weeks] Number of subjects with treatment-emergent adverse events as assessed through laboratory tests, ECGs, physical exam findings (safety and tolerability) Secondary Outcome Measures: 1. ALT or […] with total bilirubin>2×ULN [Time Frame: 52 weeks] elevated liver function tests 2. hepatic related adverse events and hepatic related adverse events that lead to discontinuation [Time Frame: 52 weeks] adverse events related to liver Results from the clinical trial described in Example 10 are summarized as follows. […] Patients were allowed to treat migraine attacks of all severities (mild to severe) up to once daily for a full year. The initial results for hepatic safety and tolerability of rimegepant 75 mg in study participants is based upon review of both adverse events and regularly scheduled liver function tests. Interim hepatic data were reviewed by an external and independent panel of liver experts. […] In the aggregate, it was noted that compared to migraine trials with drugs other than rimegepant, there was a very low incidence of overall elevations of liver function test abnormalities in rimegepant treated patients (1.0% incidence of serum ALT or […]). Subjects will continue to participate in Study 201 with additional data analyses to be submitted in the NDA and required 120-day safety updates.",
  "data": [
    {"compound": "N[C@@H]1c2cccnc2[C@H](OC(=O)N2CCC(n3c(=O)[nH]c4ncccc43)CC2)CC[C@H]1c1cccc(F)c1F", "note": "[Rimegepant, [(5S,6S,9R)-5-amino-6-(2,3-difluorophenyl)-6,7,8,9-tetrahydro-5H-cyclohepta[b]pyridin-9-yl] 4-(2-oxo-3H-imidazo[4,5-b]pyridin-1-yl)piperidine-1-carboxylate]", "values": [
      {"measurement": ">=20.0% decrease in migraines per month, number of subjects", "setting": "Enrollment Group (2-8)", "value": 353},
      {"measurement": ">=20.0% decrease in migraines per month, percent of subjects", "setting": "Enrollment Group (2-8)", "value": 35.2, "unit": "%"},
      {"measurement": ">=25.0% decrease in migraines per month, number of subjects", "setting": "Enrollment Group (2-8)", "value": 308},
      {"measurement": ">=25.0% decrease in migraines per month, percent of subjects", "setting": "Enrollment Group (2-8)", "value": 30.7, "unit": "%"},
      {"measurement": ">=30.0% decrease in migraines per month, number of subjects", "setting": "Enrollment Group (2-8)", "value": 268},
      {"measurement": ">=30.0% decrease in migraines per month, percent of subjects", "setting": "Enrollment Group (2-8)", "value": 26.7, "unit": "%"},
      {"measurement": ">=35.0% decrease in migraines per month, number of subjects", "setting": "Enrollment Group (2-8)", "value": 224},
      {"measurement": ">=35.0% decrease in migraines per month, percent of subjects", "setting": "Enrollment Group (2-8)", "value": 22.3, "unit": "%"},
      {"measurement": ">=40.0% decrease in migraines per month, number of subjects", "setting": "Enrollment Group (2-8)", "value": 181},
      {"measurement": ">=40.0% decrease in migraines per month, percent of subjects", "setting": "Enrollment Group (2-8)", "value": 18.0, "unit": "%"},
      {"measurement": ">=45.0% decrease in migraines per month, number of subjects", "setting": "Enrollment Group (2-8)", "value": 144},
      {"measurement": ">=45.0% decrease in migraines per month, percent of subjects", "setting": "Enrollment Group (2-8)", "value": 14.3, "unit": "%"},
      {"measurement": ">=50.0% decrease in migraines per month, number of subjects", "setting": "Enrollment Group (2-8)", "value": 113},
      {"measurement": ">=50.0% decrease in migraines per month, percent of subjects", "setting": "Enrollment Group (2-8)", "value": 11.3, "unit": "%"},
      {"measurement": ">=20.0% decrease in migraines per month, number of subjects", "setting": "Enrollment Group (4-14), n 269", "value": 159},
      {"measurement": ">=20.0% decrease in migraines per month, percent of subjects", "setting": "Enrollment Group (4-14), n 269", "value": 59.1, "unit": "%"},
      {"measurement": ">=25.0% decrease in migraines per month, number of subjects", "setting": "Enrollment Group (4-14), n 269", "value": 144},
      {"measurement": ">=25.0% decrease in migraines per month, percent of subjects", "setting": "Enrollment Group (4-14), n 269", "value": 53.5, "unit": "%"},
      {"measurement": ">=30.0% decrease in migraines per month, number of subjects", "setting": "Enrollment Group (4-14), n 269", "value": 130},
      {"measurement": ">=30.0% decrease in migraines per month, percent of subjects", "setting": "Enrollment Group (4-14), n 269", "value": 48.3, "unit": "%"},
      {"measurement": ">=35.0% decrease in migraines per month, number of subjects", "setting": "Enrollment Group (4-14), n 269", "value": 117},
      {"measurement": ">=35.0% decrease in migraines per month, percent of subjects", "setting": "Enrollment Group (4-14), n 269", "value": 43.5, "unit": "%"},
      {"measurement": ">=40.0% decrease in migraines per month, number of subjects", "setting": "Enrollment Group (4-14), n 269", "value": 100},
      {"measurement": ">=40.0% decrease in migraines per month, percent of subjects", "setting": "Enrollment Group (4-14), n 269", "value": 37.2, "unit": "%"},
      {"measurement": ">=45.0% decrease in migraines per month, number of subjects", "setting": "Enrollment Group (4-14), n 269", "value": 83},
      {"measurement": ">=45.0% decrease in migraines per month, percent of subjects", "setting": "Enrollment Group (4-14), n 269", "value": 30.9, "unit": "%"},
      {"measurement": ">=50.0% decrease in migraines per month, number of subjects", "setting": "Enrollment Group (4-14), n 269", "value": 67},
      {"measurement": ">=50.0% decrease in migraines per month, percent of subjects", "setting": "Enrollment Group (4-14), n 269", "value": 24.9, "unit": "%"},
      {"measurement": ">=20.0% decrease in migraines per month, number of subjects", "setting": "Enrollment Group (9-14), n 458", "value": 171},
      {"measurement": ">=20.0% decrease in migraines per month, percent of subjects", "setting": "Enrollment Group (9-14), n 458", "value": 37.3, "unit": "%"},
      {"measurement": ">=25.0% decrease in migraines per month, number of subjects", "setting": "Enrollment Group (9-14), n 458", "value": 150},
      {"measurement": ">=25.0% decrease in migraines per month, percent of subjects", "setting": "Enrollment Group (9-14), n 458", "value": 32.8, "unit": "%"},
      {"measurement": ">=30.0% decrease in migraines per month, number of subjects", "setting": "Enrollment Group (9-14), n 458", "value": 125},
      {"measurement": ">=30.0% decrease in migraines per month, percent of subjects", "setting": "Enrollment Group (9-14), n 458", "value": 27.3, "unit": "%"},
      {"measurement": ">=35.0% decrease in migraines per month, number of subjects", "setting": "Enrollment Group (9-14), n 458", "value": 101},
      {"measurement": ">=35.0% decrease in migraines per month, percent of subjects", "setting": "Enrollment Group (9-14), n 458", "value": 22.1, "unit": "%"},
      {"measurement": ">=40.0% decrease in migraines per month, number of subjects", "setting": "Enrollment Group (9-14), n 458", "value": 81},
      {"measurement": ">=40.0% decrease in migraines per month, percent of subjects", "setting": "Enrollment Group (9-14), n 458", "value": 17.7, "unit": "%"},
      {"measurement": ">=45.0% decrease in migraines per month, number of subjects", "setting": "Enrollment Group (9-14), n 458", "value": 60},
      {"measurement": ">=45.0% decrease in migraines per month, percent of subjects", "setting": "Enrollment Group (9-14), n 458", "value": 13.1, "unit": "%"},
      {"measurement": ">=50.0% decrease in migraines per month, number of subjects", "setting": "Enrollment Group (9-14), n 458", "value": 46},
      {"measurement": ">=50.0% decrease in migraines per month, percent of subjects", "setting": "Enrollment Group (9-14), n 458", "value": 10.0, "unit": "%"},
      {"measurement": ">=20.0% decrease (reduction in headache days per month of at least 20%), number of subjects", "setting": "Overall, of 1731 subjects", "value": 683},
      {"measurement": ">=20.0% decrease (reduction in headache days per month of at least 20%), percent of subjects", "setting": "Overall, of 1731 subjects", "value": 39.5, "unit": "%"},
      {"measurement": ">=25.0% decrease (reduction in headache days per month of at least 25%), number of subjects", "setting": "Overall, of 1731 subjects", "value": 602},
      {"measurement": ">=25.0% decrease (reduction in headache days per month of at least 25%), percent of subjects", "setting": "Overall, of 1731 subjects", "value": 34.8, "unit": "%"},
      {"measurement": ">=30.0% decrease (reduction in headache days per month of at least 30%), number of subjects", "setting": "Overall, of 1731 subjects", "value": 523},
      {"measurement": ">=30.0% decrease (reduction in headache days per month of at least 30%), percent of subjects", "setting": "Overall, of 1731 subjects", "value": 30.2, "unit": "%"},
      {"measurement": ">=35.0% decrease (reduction in headache days per month of at least 35%), number of subjects", "setting": "Overall, of 1731 subjects", "value": 442},
      {"measurement": ">=35.0% decrease (reduction in headache days per month of at least 35%), percent of subjects", "setting": "Overall, of 1731 subjects", "value": 25.5, "unit": "%"},
      {"measurement": ">=40.0% decrease (reduction in headache days per month of at least 40%), number of subjects", "setting": "Overall, of 1731 subjects", "value": 362},
      {"measurement": ">=40.0% decrease (reduction in headache days per month of at least 40%), percent of subjects", "setting": "Overall, of 1731 subjects", "value": 20.9, "unit": "%"},
      {"measurement": ">=45.0% decrease (reduction in headache days per month of at least 45%), number of subjects", "setting": "Overall, of 1731 subjects", "value": 287},
      {"measurement": ">=45.0% decrease (reduction in headache days per month of at least 45%), percent of subjects", "setting": "Overall, of 1731 subjects", "value": 16.6, "unit": "%"},
      {"measurement": ">=50.0% decrease (reduction in headache days per month of at least 50%), number of subjects", "setting": "Overall, of 1731 subjects", "value": 226},
      {"measurement": ">=50.0% decrease (reduction in headache days per month of at least 50%), percent of subjects", "setting": "Overall, of 1731 subjects", "value": 13.1, "unit": "%"},
      {"measurement": "headache days per month, treatment phase versus observation phase", "setting": "Study 201", "value": "fewer headache days per month"},
      {"measurement": "Hy's Law cases", "setting": "Study 201 interim analysis", "value": "no Hy's Law cases"},
      {"measurement": "liver cases assessed as probably related to study drug", "setting": "Study 201 interim analysis", "value": "no liver cases"},
      {"measurement": "incidence of serum ALT or AST >3×ULN", "setting": "Study 201 interim analysis, 75 mg up to once daily", "value": 1.0, "unit": "%"},
      {"measurement": "liver safety signal", "setting": "Study 201 interim, including near-daily dosing (≥15 doses/month)", "value": "no liver safety signal detected"}
    ]}
  ]
}
